Structures can show the parent of a compound that is named as a salt.
Assay: hygroscopic character of the salt forms
Type: physicochemical
Settings: solid salt form; no method or figures given

Row | Molecule | hygroscopicity (hygroscopic character of the salt)
1 | 6-chloro-5-{2,6-difluoro-4-[3-(methylamino)propoxy]phenyl}-2-pyrazin-2-yl-N-[(1S)-2,2,2-trifluoro-1-methylethyl]pyrimidin-4-amine hemifumarate | essentially avoids the disadvantage of the hygroscopic character
2 | CNCCCOc1cc(F)c(-c2c(Cl)nc(-c3cnccn3)nc2N[C@@H](C)C(F)(F)F)c(F)c1 [hydrochloride, 6-chloro-5-{2,6-difluoro-4-[3-(methylamino)propoxy]phenyl}-2-pyrazin-2-yl-N-[(1S)-2,2,2-trifluoro-1-methylethyl]pyrimidin-4-amine] | very hygroscopic
